Molecular target: T1, human MRGPRX2 (Homo sapiens, UniProt Q96LB1)
T1 construct: expressed in transfected cells; host or cells: FlpIn TRex HEK293 (TRex-MRGPRX2-HEK), doxycycline-induced
T1 sequence (Q96LB1 1-330): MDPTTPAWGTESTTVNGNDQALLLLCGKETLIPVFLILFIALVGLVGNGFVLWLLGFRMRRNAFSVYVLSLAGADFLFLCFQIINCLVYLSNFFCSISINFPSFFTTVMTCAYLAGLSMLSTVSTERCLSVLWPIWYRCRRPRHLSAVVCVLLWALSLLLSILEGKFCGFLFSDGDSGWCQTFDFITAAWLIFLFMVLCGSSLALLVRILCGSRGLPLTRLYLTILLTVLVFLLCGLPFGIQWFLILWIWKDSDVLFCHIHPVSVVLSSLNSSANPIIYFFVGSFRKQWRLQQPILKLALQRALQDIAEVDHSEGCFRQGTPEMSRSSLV
Test: MRGPRX2 Activity Assay (IP-1 HTRF, antagonist mode)
Format: cell-based
Settings: FlpIn TRex-MRGPRX2-HEK293 cells; versus 1 μM Cortistatin-14 agonist; 30 minutes preincubation
Method: FlpIn TRex-MRGPRX2-HEK293 cells (herein TRex-MRPGRX2-HEK) stably transfected to express human MRGPRX2 were maintained at 37° C. with 5% CO2 and grown in DMEM supplemented with 10% FBS, 1% L-Glutamate, 1% penicillin/streptomycin, 100 ug/mL Hygromycin B, and 15 ug/mL Blasticidin.
GOI (MRGPRX2) expression was induced with 100 ng/mL of Doxycycline 18-24 hours prior to experiment, in flask. On the day of experiment, cells were lifted with TripLE Express and seeded in 384-well white walled opaque bottomed, assay plates, at 8,000 cells per well in 5 uL freshly made assay buffer (HBSS, 20 mM HEPES, 0.1% BSA and 10 mM LiCl). Compounds solubilized in 100% DMSO at 30 mM were serially diluted (1:4) first in 100% DMSO, and an intermediate plate of assay buffer was used to establish a final top concentration of 30 uM (in assay plate). Final DMSO concentration was kept constant at 1% across assay plates. […], at 30 mM stock concentration was solubilized in HBSS+0.1% BSA, stored at −20° C. in 5 μL aliquots and discarded after one freeze-thaw cycle. […].
Antagonist equilibrium was established with 30 minutes preincubation, followed by no wash, direct addition, and stimulation of agonist for 1 hour at 37° C./5% CO2. IP-1 standards and HTRF detection reagents were added according to the IP-one Gq kit protocol purchased from CisBio (part number 62IPAPEJ). The plate was read on an EnVision XCite plate reader. The HTRF ratio was then calculated from raw data (channel1/channel2×10,000) and analyzed using either GraphPad Prism or a custom Python script to calculate IC50 using Log[Antagonist] vs. response (4 parameter) nonlinear regression.

| Structure (SMILES) | IC50 [nM] |
| --- | --- |
| Cc1nc(NC(=O)[C@@H](C)N2CCC(F)(F)[C@@H](c3cc[n+]([O-])cc3)C2)cn1Cc1cc(F)cc(C#N)c1 (single isomer, unassigned) [Compound 18] | > 10000 |
| C[C@@H](C(=O)Nc1cn2c(n1)[C@@H](O)C[C@H]2c1cc(F)cc(F)c1)N1CCC(F)(F)[C@@H](c2ccc(=O)[nH]c2)C1 (single isomer, unassigned) [Compound 517] | > 30000 |
| C[C@H](C(=O)Nc1noc(Cc2cc(F)cc(F)c2)n1)N1CCC(F)(F)[C@@H](c2cc[n+]([O-])cc2)C1 (single isomer, unassigned) [Compound 57] | > 10000 |
| C[C@@H](C(=O)Nc1cn2c(n1)CC[C@@H]2c1cc(F)cc(F)c1)N1CCC(F)(F)[C@@H](c2ccc(=O)n(C)c2)C1 (single isomer, unassigned) [Compound 532] | 5200 |
| C[C@H](C(=O)Nc1cn(Cc2ccc(F)cc2F)cn1)N1CCC(F)(F)[C@H](c2cc[n+]([O-])cc2)C1 (single isomer, unassigned) [Compound 4] | > 10000 |
| C[C@@H](C(=O)Nc1cn2c(n1)CC[C@@H]2c1cc(F)cc(F)c1)N1CCOCC1 (single isomer, unassigned) [Compound 511] | > 30000 |
| C[C@@H](C(=O)Nc1cn(Cc2cc(F)cc(F)c2)cn1)N1CCC(F)(F)[C@@H](c2cc[n+]([O-])cc2)C1 (single isomer, unassigned) [Compound 6] | 1780 |
| C[C@H](C(=O)Nc1cn2c(n1)CC[C@@H]2c1cc(F)cc(F)c1)N1CCOCC1 (single isomer, unassigned) [Compound 512] | 4080 |
| Cc1nc(NC(=O)[C@H](C)N2CCOCC2)cn1Cc1cc(F)cc(F)c1 (single isomer, unassigned) [Compound 23] | 700 |
| C[C@@H](C(=O)Nc1cn(-c2cc(F)cc(F)c2)cn1)N1CCC(F)(F)[C@@H](c2cc[n+]([O-])cc2)C1 [Compound 75, 4-((S)-1-((S)-1-((1-(3,5-difluorophenyl)-1H-imidazol-4-yl)amino)-1-oxopropan-2-yl)-4,4-difluoropiperidin-3-yl)pyridine 1-oxide] | 513 |
| C[C@@H](C(=O)Nc1nc2ccccc2s1)N1CCC(F)(F)[C@@H](c2cc[n+]([O-])cc2)C1 (single isomer, unassigned) [Compound 84] | 12700 |
| C[C@@H](C(=O)Nc1cn2c(n1)CC[C@H]2c1cc(F)cc(F)c1)N1CCOCC1 (single isomer, unassigned) [Compound 514] | > 30000 |
| C[C@@H](C(=O)Nc1cn2c(n1)CC[C@@H]2c1cc(F)cc(F)c1)N1CCC(F)(F)[C@@H](c2c[nH]c(=O)c(CO)c2)C1 (single isomer, unassigned) [Compound 523] | > 30000 |
| C[C@@H](C(=O)Nc1cn2c(n1)CC[C@@H]2c1cc(F)cc(F)c1)N1CCC(F)(F)[C@@](C)(c2cc[n+]([O-])cc2)C1 (single isomer, unassigned) [Compound 519] | > 30000 |
| C[C@H](C(=O)Nc1cn(Cc2cc(F)cc(F)c2)cn1)N1CCC(F)(F)[C@H](c2ccc(=O)n(C)c2)C1 (single isomer, unassigned) [Compound 70] | > 30000 |
| C[C@@H](C(=O)Nc1cn(Cc2cc(F)cc(F)c2)c(C(F)F)n1)N1CCC(F)(F)[C@@H](c2cc[n+]([O-])cc2)C1 (single isomer, unassigned) [Compound 82] | 1170 |
| C[C@@H](C(=O)Nc1cn(Cc2ccc(Cl)c(F)c2)cn1)N1CCC(F)(F)[C@@H](c2cc[n+]([O-])cc2)C1 [Compound 47, 4-((S)-1-((S)-1-((1-(4-chloro-3-fluorobenzyl)-1H-imidazol-4-yl)amino)-1-oxopropan-2-yl)-4,4-difluoropiperidin-3-yl)pyridine 1-oxide] | 775 |
| C[C@@H](C(=O)Nc1cn(Cc2ccc(F)cc2F)cn1)N1CCC(F)(F)[C@H](c2cc[n+]([O-])cc2)C1 (single isomer, unassigned) [Compound 3] | > 10000 |

The next molecules have a lower IC50 than those just listed; values first:

| IC50 [nM] | Structure (SMILES) |
| --- | --- |
| 267 | C[C@@H](C(=O)Nc1cn(Cc2cc(F)ccc2C(F)(F)F)cn1)N1CCC(F)(F)[C@@H](c2cc[n+]([O-])cc2)C1 [Compound 62, 4-((S)-4,4-difluoro-1-((S)-1-((1-(5-fluoro-2-(trifluoromethyl)benzyl)-1H-imidazol-4-yl)amino)-1-oxopropan-2-yl)piperidin-3-yl)pyridine 1-oxide] |
| 9.8 | C[C@@H](C(=O)Nc1cn2c(n1)CC[C@@H]2c1cc(F)cc(F)c1)N1CCC(F)(F)[C@H](c2cc[n+]([O-])c(CO)c2)C1 (single isomer, unassigned) [Compound 526] |
| 233 | C[C@H](C(=O)Nc1cn([C@@H](C)c2cc(F)cc(F)c2)cn1)N1CCC(F)(F)[C@@H](c2cc[n+]([O-])cc2)C1 (single isomer, unassigned) [Compound 13] |
| 465 | C[C@H](c1cc(F)cc(F)c1)n1cnc(NC(=O)[C@H](C)N2CCC(F)(F)[C@@H](c3cc[n+]([O-])cc3)C2)c1 (single isomer, unassigned) [Compound 14] |
| 71 | C[C@@H](C(=O)Nc1cn(Cc2cccc(Cl)c2Cl)cn1)N1CCC(F)(F)[C@@H](c2cc[n+]([O-])cc2)C1 [Compound 66, 4-((S)-1-((S)-1-((1-(2,3-dichlorobenzyl)-1H-imidazol-4-yl)amino)-1-oxopropan-2-yl)-4,4-difluoropiperidin-3-yl)pyridine 1-oxide] |
| 131 | C[C@@H](C(=O)Nc1cn(Cc2cccc(Cl)c2)cn1)N1CCC(F)(F)[C@@H](c2cc[n+]([O-])cc2)C1 [Compound 43, 4-((S)-1-((S)-1-((1-(3-chlorobenzyl)-1H-imidazol-4-yl)amino)-1-oxopropan-2-yl)-4,4-difluoropiperidin-3-yl)pyridine 1-oxide] |
| 114 | C[C@@H](C(=O)Nc1cn(Cc2ccncc2Cl)cn1)N1CCC(F)(F)[C@@H](c2cc[n+]([O-])cc2)C1 [Compound 63, 4-((S)-1-((S)-1-((1-((3-chloropyridin-4-yl)methyl)-1H-imidazol-4-yl)amino)-1-oxopropan-2-yl)-4,4-difluoropiperidin-3-yl)pyridine 1-oxide] |
| 45 | C[C@@H](C(=O)Nc1cn(Cc2cc(Cl)cc(Cl)c2)cn1)N1CCC(F)(F)[C@@H](c2cc[n+]([O-])cc2)C1 [Compound 50, 4-((S)-1-((S)-1-((1-(3,5-dichlorobenzyl)-1H-imidazol-4-yl)amino)-1-oxopropan-2-yl)-4,4-difluoropiperidin-3-yl)pyridine 1-oxide] |
| 34 | C[C@@H](C(=O)Nc1cn(Cc2cccc(F)c2Cl)cn1)N1CCC(F)(F)[C@@H](c2cc[n+]([O-])cc2)C1 [Compound 51, 4-((S)-1-((S)-1-((1-(2-chloro-3-fluorobenzyl)-1H-imidazol-4-yl)amino)-1-oxopropan-2-yl)-4,4-difluoropiperidin-3-yl)pyridine 1-oxide] |
| 196 | C[C@@H](C(=O)Nc1nc2cc3c(cc2s1)OCO3)N1CCC(F)(F)[C@@H](c2cc[n+]([O-])cc2)C1 (single isomer, unassigned) [Compound 12] |
| 169 | C[C@@H](C(=O)Nc1cn(Cc2ccc(F)c(F)c2F)cn1)N1CCC(F)(F)[C@@H](c2cc[n+]([O-])cc2)C1 [Compound 42, 4-((S)-4,4-difluoro-1-((S)-1-oxo-1-((1-(2,3,4-trifluorobenzyl)-1H-imidazol-4-yl)amino)propan-2-yl)piperidin-3-yl)pyridine 1-oxide] |
| 125 | Cc1nc(NC(=O)[C@H](C)N2CCC(F)(F)[C@@H](c3cc[n+]([O-])cc3)C2)cn1Cc1cc(F)cc(C#N)c1 (single isomer, unassigned) [Compound 17] |
| 31 | C[C@@H](C(=O)Nc1cn2c(n1)CC[C@@H]2c1cc(F)cc(F)c1)N1CCC(F)(F)[C@H](c2cc[n+]([O-])c(CN3CCC(F)(F)CC3)c2)C1 (single isomer, unassigned) [Compound 535] |
| 54 | C[C@@H](C(=O)Nc1cn(Cc2ccccc2F)cn1)N1CCC(F)(F)[C@@H](c2cc[n+]([O-])cc2)C1 [Compound 37, 4-((S)-4,4-difluoro-1-((S)-1-((1-(2-fluorobenzyl)-1H-imidazol-4-yl)amino)-1-oxopropan-2-yl)piperidin-3-yl)pyridine 1-oxide] |
| 209 | C[C@@H](C(=O)Nc1cn(Cc2ccc(F)cc2)cn1)N1CCC(F)(F)[C@@H](c2cc[n+]([O-])cc2)C1 [Compound 36, 4-((S)-4,4-difluoro-1-((S)-1-((1-(4-fluorobenzyl)-1H-imidazol-4-yl)amino)-1-oxopropan-2-yl)piperidin-3-yl)pyridine 1-oxide] |

Reference: patent US20250122171A1, “Substituted Amine Compounds, Compositions and Methods of Use” (Deep Apple Therapeutics, Inc., priority 2023, published 2025)
